Read-outs that look alike come from different tables or passages of the source.
Experiments:
Z138 cells = assay: MTT cell proliferation assay, Z138 cells; format: cell-based, human; conditions: Z138 cells (mature B-cell acute lymphoblastic leukemia cell line), approximately 64-72 hours incubation
Protocol: (§1) The MTT cell proliferation assay was used to study the cytotoxic properties of the compounds. The assay was performed according to the method described by Roche Molecular Biochemicals, with minor modifications. The assay is based on the cleavage of the tetrazolium salt, MTT, in the presence of an electron-coupling reagent. The water-insoluble formazan salt produced must be solubilized in an additional step. Cells grown in a 96-well tissue culture plate were incubated with the MTT solution for approximately 4 hours. After this incubation period, a water-insoluble formazan dye formed. After solubilization, the formazan dye was quantitated using a scanning multi-well spectrophotometer (ELISA reader). […] The cells were seeded at 5,000-10,000 cells in each well of 96-well plate in 100 μL of fresh culture medium and were allowed to attach overnight. The stock solutions of the compounds were diluted in 100 μL cell culture medium to obtain eight concentrations of each test compound, ranging from 1 nM to 30 μM. […] All optical densities were measured at 490 nm using a Vmax Kinetic Microplate Reader (Molecular Devices). In most cases, the assay was performed in duplicate and the results were presented as a mean percent inhibition to the negative control±SE. The following formula was used to calculate the percent of inhibition: Inhibition (%)=(1−(ODo/OD))×100.
(§2) The compounds were tested against MS751, Z138 and 3T3 cells. The MS751 cell line is derived from a metastasis to lymph node of human cervix from a patient diagnosed with squameous cell carcinoma of the cervix. The Z138 cell line is a mature B-cell acute lymphoblastic leukemia cell line derived from a patient with chronic lumphocytic leukemia. 3T3 cells are standard fibroblast cells; they were originally isolated from Swiss mouse embryo tissue.

3T3 cells = assay: MTT cell proliferation assay, 3T3 cells; format: cell-based; conditions: 3T3 cells (standard fibroblast cells, Swiss mouse embryo), approximately 64-72 hours incubation
Protocol: as §1, §2

MS751 cells = assay: MTT cell proliferation assay, MS751 cells; format: cell-based; conditions: MS751 cells (human cervix squamous cell carcinoma, lymph node metastasis); approximately 64-72 hours incubation
Protocol: as §1, §2

| Compound | IC50 (Z138 cells; read-out: Z-138 MTT (IC50; μM)) [µM] | IC50 (3T3 cells) [µM] | IC50 (Z138 cells; Homo sapiens, Z-138) [µM] | IC50 (MS751 cells) [µM] | IC50 (3T3 cells; NIH3T3) [µM] |
| --- | --- | --- | --- | --- | --- |
| 1-((6-aminopyridin- 3-yl)methyl)-3-(2-((4- (4,4-difluoropiperidine- 1-carbonyl)-4″- fluoro-[1,1′:3′,1″- terphenyl]-4′- yl)oxy)ethyl)urea [Compound 124] | < 0.1 | > 10 |  |  |  |
| Nc1ccc(CNC(=O)NCc2cc3cc(-c4ccc(C(=O)N5CCC(F)(F)CC5)cc4)cc(-c4ccc(F)cc4)c3o2)cn1 [Compound 100, 1-((6-aminopyridin-3-yl)methyl)-3-((5-(4-(4,4-difluoropiperidine-1-carbonyl)phenyl)-7-(4-fluorophenyl)benzofuran-2-yl)methyl)urea] |  |  | < 0.1 | < 0.1 | 0.1 to 5 |
| Nc1ccc(NC(=O)NCc2cc3cc(-c4ccc(C(=O)N5CCC(F)(F)CC5)cc4)cc(-c4ccc(F)cc4)c3o2)cn1 [Compound 101, 1-(6-aminopyridin-3-yl)-3-((5-(4-(4,4-difluoropiperidine-1-carbonyl)phenyl)-7-(4-fluorophenyl)benzofuran-2-yl)methyl)urea] |  |  | 0.1 to 5 | 0.1 to 5 | > 10 |
| O=C(NCc1cc2cc(-c3ccc(C(=O)N4CCC(F)(F)CC4)cc3)cc(-c3ccc(F)cc3)c2o1)N1Cc2ccncc2C1 [Compound 102, N-((5-(4-(4,4-difluoropiperidine-1-carbonyl)phenyl)-7-(4-fluorophenyl)benzofuran-2-yl)methyl)-1H-pyrrolo[3,4-c]pyridine-2(3H)-carboxamide] |  |  | < 0.1 | < 0.1 | 0.1 to 5 |
| Nc1ccc(C2CN(C(=O)NCc3cc4cc(-c5ccc(C(=O)N6CCC(F)(F)CC6)cc5)cc(-c5ccc(F)cc5)c4o3)C2)cn1 [Compound 103, 3-(6-aminopyridin-3-yl)-N-((5-(4-(4,4-difluoropiperidine-1-carbonyl)phenyl)-7-(4-fluorophenyl)benzofuran-2-yl)methyl)azetidine-1-carboxamide] |  |  | < 0.1 | 0.1 to 5 | 0.1 to 5 |
| O=C(NCc1cccnc1)NCc1cc2cc(-c3ccc(C(=O)N4CCC(F)(F)CC4)cc3)cc(-c3ccc(F)cc3)c2o1 [Compound 104, 1-((5-(4-(4,4-difluoropiperidine-1-carbonyl)phenyl)-7-(4-fluorophenyl)benzofuran-2-yl)methyl)-3-(pyridin-3-ylmethyl)urea] |  |  | < 0.1 |  | 0.1 to 5 |
| O=C(NCc1cc2cc(-c3ccc(C(=O)N4CCC(F)(F)CC4)cc3)cc(C(F)(F)F)c2o1)N1Cc2ccncc2C1 [Compound 105, N-((5-(4-(4,4-difluoropiperidine-1-carbonyl)phenyl)-7-(trifluoromethyl)benzofuran-2-yl)methyl)-1H-pyrrolo[3,4-c]pyridine-2(3H)-carboxamide] |  |  | 0.1 to 5 |  | > 10 |
| O=C(NCc1cc2cc(-c3ccc(C(=O)N4CC(F)(F)C4)cc3)cc(C(F)(F)F)c2o1)N1Cc2ccncc2C1 [Compound 106, N-((5-(4-(3,3-difluoroazetidine-1-carbonyl)phenyl)-7-(trifluoromethyl)benzofuran-2-yl)methyl)-1H-pyrrolo[3,4-c]pyridine-2(3H)-carboxamide] |  |  | > 10 |  | > 10 |
| CN(Cc1cc2cc(-c3ccc(C(=O)N4CCC(F)(F)CC4)cc3)cc(-c3ccc(F)cc3)c2o1)C(=O)N1Cc2ccncc2C1 [Compound 109, N-((5-(4-(4,4-difluoropiperidine-1-carbonyl)phenyl)-7-(4-fluorophenyl)benzofuran-2-yl)methyl)-N-methyl-1H-pyrrolo[3,4-c]pyridine-2(3H)-carboxamide] |  |  | < 0.1 |  | 0.1 to 5 |
| O=C(NCc1cc2cc(-c3ccc(C(=O)N4CCC(F)(F)CC4)cn3)cc(-c3ccc(F)cc3)c2o1)N1Cc2ccncc2C1 [Compound 110, N-((5-(5-(4,4-difluoropiperidine-1-carbonyl)pyridin-2-yl)-7-(4-fluorophenyl)benzofuran-2-yl)methyl)-1H-pyrrolo[3,4-c]pyridine-2(3H)-carboxamide] |  |  | < 0.1 |  | < 0.1 |
| O=C(NCc1cc2cc(-c3ccc(C(=O)N4CCC(F)(F)CC4)cc3)cc(-c3ccc(F)cc3)c2s1)N1Cc2ccncc2C1 [Compound 111, N-((5-(4-(4,4-difluoropiperidine-1-carbonyl)phenyl)-7-(4-fluorophenyl)benzo[b]thiophen-2-yl)methyl)-1H-pyrrolo[3,4-c]pyridine-2(3H)-carboxamide] |  |  | < 0.1 |  | > 10 |
| Nc1ccc(CNC(=O)NCc2cc3cc(-c4ccc(C(=O)N5CCC(F)(F)CC5)cc4)cc(-c4ccc(F)cc4F)c3o2)cn1 [Compound 112, 1-((6-aminopyridin-3-yl)methyl)-3-((7-(2,4-difluorophenyl)-5-(4-(4,4-difluoropiperidine-1-carbonyl)phenyl)benzofuran-2-yl)methyl)urea] |  |  | < 0.1 |  | 0.1 to 5 |
| Nc1ccc(CNC(=O)NCc2cc3cc(-c4ccc(C(=O)N5CCC(F)(F)CC5)cc4)cc(C(F)(F)F)c3o2)cn1 [Compound 113, 1-((6-aminopyridin-3-yl)methyl)-3-((5-(4-(4,4-difluoropiperidine-1-carbonyl)phenyl)-7-(trifluoromethyl)benzofuran-2-yl)methyl)urea] |  |  | > 10 |  | > 10 |
| Nc1ccc(CNC(=O)NCc2cc3cc(-c4ccc(C(=O)N5CCC(F)(F)CC5)cc4)cc(-c4ccc(F)cc4)c3s2)cn1 [Compound 114, 1-((6-aminopyridin-3-yl)methyl)-3-((5-(4-(4,4-difluoropiperidine-1-carbonyl)phenyl)-7-(4-fluorophenyl)benzo[b]thiophen-2-yl)methyl)urea] |  |  | 5 to 10 |  | > 10 |
| Nc1cc2c(cn1)CN(C(=O)NCc1cc3cc(-c4ccc(C(=O)N5CCC(F)(F)CC5)cc4)cc(-c4ccc(F)cc4)c3o1)C2 [Compound 115, 6-amino-N-((5-(4-(4,4-difluoropiperidine-1-carbonyl)phenyl)-7-(4-fluorophenyl)benzofuran-2-yl)methyl)-1H-pyrrolo[3,4-c]pyridine-2(3H)-carboxamide] |  |  | < 0.1 |  | 0.1 to 5 |
| Nc1ccc(CNC(=O)NCc2cc3cc(-c4ccc(C(=O)N5CCC(F)(F)CC5)cn4)cc(-c4ccc(F)cc4)c3o2)cn1 [Compound 116, 1-((6-aminopyridin-3-yl)methyl)-3-((5-(5-(4,4-difluoropiperidine-1-carbonyl)pyridin-2-yl)-7-(4-fluorophenyl)benzofuran-2-yl)methyl)urea] |  |  | < 0.1 |  | 0.1 to 5 |
| Nc1ccc(CNC(=O)NCc2cc3cc(-c4ccc(C(=O)N5CC(F)(F)C5)cc4)cc(C(F)(F)F)c3o2)cn1 [Compound 117, 1-((6-aminopyridin-3-yl)methyl)-3-((5-(4-(3,3-difluoroazetidine-1-carbonyl)phenyl)-7-(trifluoromethyl)benzofuran-2-yl)methyl)urea] |  |  | 5 to 10 |  | > 10 |
| O=C(NCc1ccc(-c2ccc(-c3ccc(C(=O)N4CCC(F)(F)CC4)cc3)cc2-c2ccc(F)cc2)o1)N1Cc2ccncc2C1 [Compound 120, N-((5-(4-(4,4-difluoropiperidine-1-carbonyl)-4″-fluoro-[1,1′:3′,1″-terphenyl]-4′-yl)furan-2-yl)methyl)-1,3-dihydro-2H-pyrrolo[3,4-c]pyridine-2-carboxamide] |  |  | < 0.1 |  | > 10 |
| O=C(NCC1Cc2cc(-c3ccc(C(=O)N4CCC(F)(F)CC4)cc3)cc(-c3ccc(F)cc3)c2O1)N1Cc2ccncc2C1 (stereo not shown) [Compound 122, N-((5-(4-(4,4-difluoropiperidine-1-carbonyl)phenyl)-7-(4-fluorophenyl)-2,3-dihydrobenzofuran-2-yl)methyl)-1,3-dihydro-2H-pyrrolo [3,4-c]pyridine-2-carboxamide] |  |  | < 0.1 |  | < 0.1 |
| Nc1ccc(CNC(=O)NCC2Cc3cc(-c4ccc(C(=O)N5CCC(F)(F)CC5)cc4)cc(-c4ccc(F)cc4)c3O2)cn1 (stereo not shown) [Compound 123, 1-((6-aminopyridin-3-yl)methyl)-3-((5-(4-(4,4-difluoropiperidine-1-carbonyl)phenyl)-7-(4-fluorophenyl)-2,3-dihydrobenzofuran-2-yl)methyl)urea] |  |  | < 0.1 |  | 0.1 to 5 |
| Nc1ccc(CNC(=O)NCc2ccc(-c3ccc(-c4ccc(C(=O)N5CCC(F)(F)CC5)cc4)cc3-c3ccc(F)cc3)o2)cn1 [Compound 125, 1-((6-aminopyridin-3-yl)methyl)-3-((5-(3-(4-fluorophenyl)-4′-(4,4-difluoropiperidine-1-carbonyl)biphenyl-4-yl)furan-2-yl)methyl)urea] |  |  | < 0.1 |  | > 10 |
